The record followed here is patent US20140342065A1 (priority 2012, published 2014).

The structures appear in SMILES notation.

In series [1] the test system is freshly cut pears and peaches. The series can be described thus: NaHS solution fumigation of freshly cut pears and peaches. On the procedure: (§1) Aqueous NaHS solutions (0.25-3.5 mmol/L) could release H2S gas (10^−12˜10^−10 mol/L). H2S rapidly, reached to the highest levels within several minutes and maintained a constant concentration. […] The NaHS solution was renewed every 48 or 72 hours. The NaHS solution was placed in a sealed container separated by a partition board with pores on it. The fresh cut vegetables including Broccoli, Lettuce, Lotus Root, Yam, Pumpkin, Sweet Potato, Potato, etc, and the fresh cut fruits Apple, Pear, Kiwi Fruit, Tomato, Hami Melon, and Peach were placed above the board, while the NaHS solution was placed under the board. Therefore, the fresh cut vegetables and fruits were fumigated with H2S gas released from NaHS in the solution.
The control of freshly cut pears and peaches that were treated with water (0.0 mml/L NaHS), lost their edibility on day 2, while the shelf life of freshly cut pear and peach treated with 0.5 mmol/L-2.0 mmol/L NaHS solution was prolonged by 1-2 days. […] The control freshly cut pears and peaches treated with 0.0 mmol/L NaHS solution underwent rot process (due to physiological senescence and microbe infection) in 2.5 days, and the moldy rate reached 100% in 4 days.

For another series, the system named is bacteria and yeast. The series can be described thus: Agar plate cultures stored with 50 mg NaHS (FIG. 10, 98). The class given is cell-based. As to the method: Representative samples of foods shown include fruits, vegetables, meat, chicken and salmon. […] Foods and fruits were stored in closed containers. The containers were made of aluminum with a plastic lid that snugly fitted onto the container rim. […] Control group (Control) of foods and fruits were stored within the containers. The experimental group (Exp) of foods and fruits were placed in the same type of containers and 500 mg of NaHS was placed in a glass cup which was placed in one corner of the container of the Exp group. The containers were not sealed. Using a H2S gas detector capable of detecting 1 to 500 ppm of H2S, no H2S was detected outside the containers. The amount of gas within the Exp containers varied from 5-40 ppm during the course of exposure. […] Experiments were carried out at room temperature for the durations shown. […] There is small change in color, consistency, and of the same food group and there is no evidence of growth of yeast in the NaHS treated group. Strawberry 80. […] The fruit also lost its consistency and is discolored. […] Raspberry 82. Growth of yeast is seen by day 4 and is pronounced on day 6 (arrow 83) in the control group. The fruit also lost its consistency and is discolored. […] Blackberry 84. Growth of yeast is seen by day 4 which is pronounced by day 6 (arrow 85) in the control group. The fruit also lost its consistency and is discolored. […] Banana 86. […]

Another series deals with freshly cut tomatoes. The series can be described thus: NaHS solution fumigation of freshly cut tomatoes at breaker stage. As to the method:
as §1
The control freshly cut tomatoes that were treated with water (0.0 mmol/L NaHS) gradually turned red, and reached 100% maturation on day 5, while the maturation time of freshly cut tomatoes treated with 0.5 mmol/L-3.5 mmol/L NaHS solution was prolonged by 4-5 days.

For series [2], the system named is freshly cut chips of cantaloupe. The series can be described thus: NaHS solution fumigation of freshly cut chips of cantaloupe. As to the method:
as §1
The control freshly cut chips of cantaloupe that were treated with water (0.0 mmol/L NaHS) lost their color and became brown, while the freshness of freshly cut chips of cantaloupe treated with 0.05 mmol/L-1.5 mmol/L NaHS solution was prolonged by 8-12 hours.

A short description of series [3]: Release of H2S gas from aqueous NaHS solutions. The series is classed as physicochemical. The note with it: aqueous NaHS solutions 0.25-3.5 mmol/L. On the procedure: as §1

For `S` [NaHS, sodium hydrosulfide], the “shelf life prolonged by” value in series [1] (0.5 mmol/L-2.0 mmol/L NaHS, control lost edibility on day 2) was 1 to 2 days; in series [1] (1.5 mmol/L NaHS (best)), 2 days. Moreover, in series [1] (1.5-2.0 mmol/L NaHS), the “day until which micro-organisms did not appear” value turned out to be 5 days. This molecule also had a moldy rate in series [1] (1.5-2.0 mmol/L NaHS, after 10 days, control 100% in 4 days) of 80%. Besides, the “time without growth following initiation of cultures” value with bacteria and yeast is recorded as “up to 2 months”. Moreover, in the series on bacteria and yeast (room temperature or 37° C., day 1-3), the “colonies of bacteria and yeast on agar plates” value is on record as “no growth was evident”. Besides, in the series on freshly cut tomatoes (0.5 mmol/L-3.5 mmol/L NaHS, control 100% maturation on day 5), the “maturation time prolonged by” value was in the range of 4 to 5 days. Further, the “senescence time prolonged by” value with freshly cut tomatoes (1.5 mmol/L-2.0 mmol/L NaHS (best)) turned out to be 5 days. Further, the “freshness prolonged by” value in series [2] (0.05 mmol/L-1.5 mmol/L NaHS) is 8 to 12 h; in series [2] (0.9 mmol/L-1.0 mmol/L NaHS (best)), 12 h. Further, the H2S gas released in series [3] is 10^−12˜10^−10 mol/L.
